Source: US6923951B2, “Non-invasive localization of a light-emitting conjugate in a mammal” (priority 1994, dated 2005)

Key:
HIV LTR = experiment: DMSO induction of HIV LTR-driven luciferase expression in transgenic mice; type: in vivo, mouse
Excerpt: Transgenic mice containing a construct composed of the regulatory portion of the HIV LTR (U3 region) upstream of the coding sequence of the firefly luciferase gene were generated and evaluated for the emission of photons after transmission through tissues. A diagram of the construct is shown at the bottom of FIG. 13. Numbers along the construct indicate nucleotide positions relative to the start of transcription. Sequences matching known motifs of cellular transcription factors are indicated with the names of the factors. Transcription from the HIV LTR was activated in the right ear of each two animals with a single topical application of dimethyl sulfoxide (DMSO). The animal on the left in FIG. 13 was given 150 μl of an aqueous solution of the substrate luciferin (50 mg/ml) via intraperitoneal (i.p.) injection. The animal on the right was not given substrate. 20 min. post treatment with substrate the animals were imaged as described for the plate in FIG. 12 with a 20 min. integration time. […] This technology allows for the temporal and spatial analyses of transcriptional activity in living animals.
The left half of the shaved dorsal surface of the transgenic animals and the left ear were treated twice daily for two days with DMSO to activate expression of the HIV-1 LTR. Luciferin was applied topically over the entire surface of the back and both ears, and animals were imaged immediately after addition of substrate.
This signal is assumed to be due to ingestion of DMSO during grooming (FIG. 17).

SL1344lux Salmonella = experiment: Effects of ciprofloxacin treatment on bioluminescence from SL1344lux Salmonella in orally inoculated mice; type: in vivo, Salmonella typhimurium
Procedure: Effects of Ciprofloxacin on Salmonella Infection. […] Mice are orally inoculated with SL1344lux and treated with […] of ciprofloxacin, an antibiotic effective against Salmonella infections. The mice are imaged at selected time periods following treatment, and the extent of infection is quantitated by measuring photon emission. Photon emission in treated mice is compared to values before the initiation of treatment, and to values from control mice that had been infected, but not treated. Results from one such experiment are shown in FIGS. 11A, 11B, 11C, 11D, and 11E and discussed in Example 10.
Animals or objects to be imaged were immobilized in a light-tight box containing a door and a charge-coupled device (CCD) camera with a two stage microchannel intensifier head (model C2400-40, Hamamatsu). The camera was attached, via cables leading out of the box, to an “ARGUS 50” image processor (Hamamatsu).
Bioluminescence images were generated by integrating photons for a selected period of time, typically 5 minutes. […]
FIGS. 11B and 11D show composite images of representative animals from the control and treated groups, respectively, immediately before initiation of treatment of the experimental group. […] The total number of photons detected over the abdominal area were determined, normalized to the value at t=0, and plotted in FIG. 11A with respect to time post-treatment.

[1] = system: dermal cells in transgenic mice
Procedure: In order to optimize delivery of substrate, the substrate was topically delivered to dermal cells. The HIV LTR was induced in the skin of mice with twice daily treatments of DMSO over the entire surface of the back and the right ear for two consecutive days. Substrate was applied to the skin in solutions prepared in DMSO. Concentrations included 200 mM, 100 mM, 50 mM, 25 mM, and 12.5 mM. 5 μl of each concentration were spotted, in quadruplicate, on the backs using a multichannel pipette with the highest concentrations near the head. 5 μl of the 50 mM solution was applied to each ear. 2 min. after application the animal was imaged as described in FIG. 12. […] Solutions of 25% H2O in DMSO to 100% H2O were tested.
The experiment of induction of luciferase expression in ears and systemic luciferin delivery of Example 14 was repeated with topical administration of substrate in 100% DMSO (FIG. 15). […] See, FIGS. 13 and 15.

In the case of `C[S+](C)[O-]` [DMSO, dimethyl sulfoxide], the “Bioluminescence from internal tissues” value (HIV LTR; animals treated with DMSO on one ear only) is reported as “Bioluminescence was detectable from the abdomens”, the “Bioluminescence after unilateral DMSO treatment” value (HIV LTR; left half of shaved dorsal surface and left ear treated twice daily for two days, luciferin topical over back and both ears) is reported as “Unilateral emission of bioluminescence corresponding to the induced region” and the “Bioluminescence from the DMSO-induced ear” value (HIV LTR; single topical application of DMSO on right ear, luciferin 150 μl of 50 mg/ml i.p., imaged 20 min. post substrate) is reported as “light emission over the right ear”.
For `O=C(O)c1cn(C2CC2)c2cc(N3CCNCC3)c(F)cc2c1=O` [ciprofloxacin], the “Bioluminescence over the abdomen” value (SL1344lux Salmonella; Balb/c mice orally inoculated with SL1344lux, at 8 days p.i. 100 mg ciprofloxacin hydrochloride i.p. (3 mg/kg body weight), 5.5 h after initiation of treatment) was “reduced to undetectable levels” and the “Infection (photon emission) compared to time zero and to untreated control mice” value (SL1344lux Salmonella; mice orally inoculated with SL1344lux, treated with 100 mg of ciprofloxacin) was “significantly reduced”.
`O=C(O)[C@H]1CSC(c2nc3ccc(O)cc3s2)=N1` [luciferin] was tested, and the “Bioluminescence from spots containing 200 mM luciferin” value ([1]; 5 μl spots in DMSO on DMSO-induced back skin) was “roughly equivalent to that from the 100 mM spots”, the “Bioluminescent response versus topical luciferin concentration” value ([1]; 5 μl spots of luciferin in DMSO on DMSO-induced back skin, imaged 2 min. after application) was “increase linearly over the concentrations from 12.5 mM to 100 mM” and the “Bioluminescence from solutions of luciferin containing water” value ([1]; mouse, in vivo) was “no detectable bioluminescence”. The “Time of peak light emission, systemic substrate” value ([1]; mouse, in vivo) was 20 to 30 min and the “Time of peak light emission, topical substrate” value ([1]; mouse, in vivo) was “immediately after topical treatment”.
